According to ChEMBL document CHEMBL5291721, “A preclinical secondary pharmacology resource illuminates target-adverse drug reaction associations of marketed drugs” (Nat Commun, 2023):

What was measured:
[1] = target: Beta-2 adrenergic receptor (Homo sapiens, UniProt P07550)
[2] = target: Gamma-aminobutyric acid receptor subunit alpha-1/alpha-2/beta-2/gamma-2 (Homo sapiens, UniProt P14867+P18507+P47869+P47870); type: functional, cell-based
[3] = target: T1, Cholecystokinin receptor type A (Homo sapiens, UniProt P32238)
T1 sequence (P32238 whole entry): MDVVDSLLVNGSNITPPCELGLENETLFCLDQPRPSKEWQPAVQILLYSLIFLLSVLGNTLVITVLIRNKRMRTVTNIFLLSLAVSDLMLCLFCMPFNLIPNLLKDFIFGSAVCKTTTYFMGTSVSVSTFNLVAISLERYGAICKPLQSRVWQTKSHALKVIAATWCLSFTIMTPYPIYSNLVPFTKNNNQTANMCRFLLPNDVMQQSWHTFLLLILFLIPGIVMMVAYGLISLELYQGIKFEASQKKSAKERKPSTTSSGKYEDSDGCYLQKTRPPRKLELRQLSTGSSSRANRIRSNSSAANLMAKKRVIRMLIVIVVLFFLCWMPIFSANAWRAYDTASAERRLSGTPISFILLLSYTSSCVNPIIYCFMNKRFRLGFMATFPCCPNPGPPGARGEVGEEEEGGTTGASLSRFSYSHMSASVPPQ

Mu-type opioid receptor = Mu-type opioid receptor (Homo sapiens, UniProt P35372); experiment: biochemical; type: functional
[4] = target: cGMP-inhibited 3',5'-cyclic phosphodiesterase 3A (Homo sapiens, UniProt Q14432); type: functional
B2 bradykinin receptor = target: T2, B2 bradykinin receptor (Homo sapiens, UniProt P30411)
T2 sequence (P30411 whole entry): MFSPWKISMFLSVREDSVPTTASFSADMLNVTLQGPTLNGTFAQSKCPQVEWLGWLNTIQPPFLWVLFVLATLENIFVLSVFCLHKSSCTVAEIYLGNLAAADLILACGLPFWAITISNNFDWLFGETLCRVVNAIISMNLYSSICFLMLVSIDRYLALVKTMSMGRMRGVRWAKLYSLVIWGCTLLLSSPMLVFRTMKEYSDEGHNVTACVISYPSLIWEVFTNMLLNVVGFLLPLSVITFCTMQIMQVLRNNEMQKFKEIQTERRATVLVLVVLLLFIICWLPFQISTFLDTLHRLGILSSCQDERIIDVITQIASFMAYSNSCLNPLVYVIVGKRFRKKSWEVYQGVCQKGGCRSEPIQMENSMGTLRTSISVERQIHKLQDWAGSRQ

[5] = target: T3, Type-1 angiotensin II receptor (Homo sapiens, UniProt P30556)
T3 sequence (P30556 whole entry): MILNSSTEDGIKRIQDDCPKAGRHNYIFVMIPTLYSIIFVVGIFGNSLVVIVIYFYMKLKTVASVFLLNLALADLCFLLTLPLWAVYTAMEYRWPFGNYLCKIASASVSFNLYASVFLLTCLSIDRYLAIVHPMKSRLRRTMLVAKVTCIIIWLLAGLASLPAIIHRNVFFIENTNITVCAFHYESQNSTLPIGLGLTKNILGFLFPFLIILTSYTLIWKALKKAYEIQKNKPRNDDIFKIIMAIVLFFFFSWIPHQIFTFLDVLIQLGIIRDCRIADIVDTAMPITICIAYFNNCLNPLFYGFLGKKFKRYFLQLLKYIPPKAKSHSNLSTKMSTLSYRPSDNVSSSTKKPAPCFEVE

[6] = target: T4, Alpha-2A adrenergic receptor (Homo sapiens, UniProt P08913); type: functional, cell-based
T4 sequence (P08913 whole entry): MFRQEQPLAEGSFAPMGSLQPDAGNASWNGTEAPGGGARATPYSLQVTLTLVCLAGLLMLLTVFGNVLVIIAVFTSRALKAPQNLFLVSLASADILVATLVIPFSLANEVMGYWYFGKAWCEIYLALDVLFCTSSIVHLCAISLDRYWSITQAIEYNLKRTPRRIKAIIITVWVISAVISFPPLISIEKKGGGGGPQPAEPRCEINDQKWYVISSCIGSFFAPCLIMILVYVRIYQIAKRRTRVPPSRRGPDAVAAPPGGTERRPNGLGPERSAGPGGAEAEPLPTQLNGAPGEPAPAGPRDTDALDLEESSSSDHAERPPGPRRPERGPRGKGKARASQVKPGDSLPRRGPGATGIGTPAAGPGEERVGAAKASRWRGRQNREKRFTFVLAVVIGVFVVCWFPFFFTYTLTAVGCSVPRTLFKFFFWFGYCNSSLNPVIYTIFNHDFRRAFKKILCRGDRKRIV

[7] = target: T5, Alpha-2B adrenergic receptor (Homo sapiens, UniProt P18089)
T5 sequence (P18089 whole entry): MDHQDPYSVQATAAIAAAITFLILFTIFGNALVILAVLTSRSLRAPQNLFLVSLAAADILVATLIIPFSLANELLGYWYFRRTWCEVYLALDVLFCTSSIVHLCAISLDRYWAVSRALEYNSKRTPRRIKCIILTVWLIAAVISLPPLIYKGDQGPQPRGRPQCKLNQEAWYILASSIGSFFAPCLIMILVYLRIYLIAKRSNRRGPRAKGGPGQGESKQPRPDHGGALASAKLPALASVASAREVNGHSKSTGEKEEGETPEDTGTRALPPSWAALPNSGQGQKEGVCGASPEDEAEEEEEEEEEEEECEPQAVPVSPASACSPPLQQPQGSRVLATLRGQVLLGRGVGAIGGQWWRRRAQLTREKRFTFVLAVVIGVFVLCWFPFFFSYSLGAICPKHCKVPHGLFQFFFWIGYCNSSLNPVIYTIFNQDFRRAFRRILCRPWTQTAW

[8] = target: 5-hydroxytryptamine receptor 2A (Homo sapiens, UniProt P28223); type: functional, cell-based
Vasopressin V1a receptor = Vasopressin V1a receptor (Homo sapiens, UniProt P37288)
[9] = target: Sodium-dependent serotonin transporter (Homo sapiens, UniProt P31645)
Melanocortin receptor 4 = Melanocortin receptor 4 (Homo sapiens, UniProt P32245)
Also: assay procedure not described here.

Mu-type opioid receptor, sequence (P35372 whole entry): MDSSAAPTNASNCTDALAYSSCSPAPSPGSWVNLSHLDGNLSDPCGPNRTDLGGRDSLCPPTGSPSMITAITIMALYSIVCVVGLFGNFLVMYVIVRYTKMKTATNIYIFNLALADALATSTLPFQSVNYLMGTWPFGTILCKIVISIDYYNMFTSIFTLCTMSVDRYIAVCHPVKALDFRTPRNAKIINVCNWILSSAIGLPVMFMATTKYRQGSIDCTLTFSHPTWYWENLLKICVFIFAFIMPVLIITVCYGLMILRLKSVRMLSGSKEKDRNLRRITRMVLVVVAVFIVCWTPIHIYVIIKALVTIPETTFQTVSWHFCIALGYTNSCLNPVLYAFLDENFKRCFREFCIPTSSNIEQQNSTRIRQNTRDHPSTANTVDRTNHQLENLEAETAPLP
5-hydroxytryptamine receptor 2A, sequence (P28223 whole entry): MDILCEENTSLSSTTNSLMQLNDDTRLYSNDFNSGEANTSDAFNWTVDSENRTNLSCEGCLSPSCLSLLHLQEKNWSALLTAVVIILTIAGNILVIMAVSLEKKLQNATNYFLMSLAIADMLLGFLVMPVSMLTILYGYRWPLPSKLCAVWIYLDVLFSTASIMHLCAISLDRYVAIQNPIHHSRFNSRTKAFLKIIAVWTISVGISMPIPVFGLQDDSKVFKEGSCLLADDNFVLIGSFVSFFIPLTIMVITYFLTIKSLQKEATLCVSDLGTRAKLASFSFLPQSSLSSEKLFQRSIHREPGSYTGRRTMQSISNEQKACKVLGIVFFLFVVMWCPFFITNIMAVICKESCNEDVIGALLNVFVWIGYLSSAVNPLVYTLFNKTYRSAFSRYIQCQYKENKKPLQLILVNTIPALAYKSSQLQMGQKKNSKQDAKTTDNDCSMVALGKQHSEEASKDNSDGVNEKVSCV
Sodium-dependent serotonin transporter, sequence (P31645 whole entry): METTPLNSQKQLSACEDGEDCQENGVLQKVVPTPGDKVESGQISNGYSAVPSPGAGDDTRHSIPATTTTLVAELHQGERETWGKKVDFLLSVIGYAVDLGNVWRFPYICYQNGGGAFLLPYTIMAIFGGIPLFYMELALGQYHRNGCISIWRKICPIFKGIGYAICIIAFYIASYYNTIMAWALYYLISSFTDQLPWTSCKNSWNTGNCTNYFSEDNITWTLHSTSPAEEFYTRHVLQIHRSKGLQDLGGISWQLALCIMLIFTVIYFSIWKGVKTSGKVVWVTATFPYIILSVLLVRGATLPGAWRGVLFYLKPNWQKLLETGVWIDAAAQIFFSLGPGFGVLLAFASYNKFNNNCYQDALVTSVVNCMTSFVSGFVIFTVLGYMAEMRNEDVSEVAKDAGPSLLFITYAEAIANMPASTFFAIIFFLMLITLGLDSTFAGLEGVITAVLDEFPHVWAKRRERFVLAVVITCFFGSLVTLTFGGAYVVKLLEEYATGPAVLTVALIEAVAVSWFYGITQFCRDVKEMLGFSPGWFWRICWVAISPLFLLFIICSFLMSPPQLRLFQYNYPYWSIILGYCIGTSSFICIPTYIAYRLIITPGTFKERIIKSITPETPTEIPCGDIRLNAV
Beta-2 adrenergic receptor, sequence (P07550 whole entry): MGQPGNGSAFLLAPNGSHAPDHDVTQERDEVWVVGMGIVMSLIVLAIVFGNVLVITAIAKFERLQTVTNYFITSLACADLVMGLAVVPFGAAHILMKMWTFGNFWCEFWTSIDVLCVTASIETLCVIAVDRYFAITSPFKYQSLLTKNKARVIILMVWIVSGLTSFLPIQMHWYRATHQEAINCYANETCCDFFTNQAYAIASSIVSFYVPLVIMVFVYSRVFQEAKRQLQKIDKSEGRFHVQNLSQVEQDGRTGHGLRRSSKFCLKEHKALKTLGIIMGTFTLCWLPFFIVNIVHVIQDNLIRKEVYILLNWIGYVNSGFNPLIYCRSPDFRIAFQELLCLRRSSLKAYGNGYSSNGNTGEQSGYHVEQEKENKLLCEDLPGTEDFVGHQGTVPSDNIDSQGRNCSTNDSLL
Vasopressin V1a receptor, sequence (P37288 whole entry): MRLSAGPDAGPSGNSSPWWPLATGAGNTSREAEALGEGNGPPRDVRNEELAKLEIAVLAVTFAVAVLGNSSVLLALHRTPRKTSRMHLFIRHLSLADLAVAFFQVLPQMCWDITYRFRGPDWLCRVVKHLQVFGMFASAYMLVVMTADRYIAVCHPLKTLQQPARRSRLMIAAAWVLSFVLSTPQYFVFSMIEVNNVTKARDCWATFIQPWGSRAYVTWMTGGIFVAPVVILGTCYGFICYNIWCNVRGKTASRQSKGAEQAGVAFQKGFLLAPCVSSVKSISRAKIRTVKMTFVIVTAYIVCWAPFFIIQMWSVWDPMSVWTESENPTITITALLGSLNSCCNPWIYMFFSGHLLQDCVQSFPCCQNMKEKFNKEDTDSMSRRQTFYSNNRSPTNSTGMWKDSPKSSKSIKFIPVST
Melanocortin receptor 4, sequence (P32245 whole entry): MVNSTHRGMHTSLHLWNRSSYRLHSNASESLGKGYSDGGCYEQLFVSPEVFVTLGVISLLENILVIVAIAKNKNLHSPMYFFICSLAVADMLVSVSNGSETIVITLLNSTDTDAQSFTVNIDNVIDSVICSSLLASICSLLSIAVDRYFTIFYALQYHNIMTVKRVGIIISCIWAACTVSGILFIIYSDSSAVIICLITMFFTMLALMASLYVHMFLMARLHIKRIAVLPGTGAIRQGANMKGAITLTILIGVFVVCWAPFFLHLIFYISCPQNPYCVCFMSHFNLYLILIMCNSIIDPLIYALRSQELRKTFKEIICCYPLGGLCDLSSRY
cGMP-inhibited 3',5'-cyclic phosphodiesterase 3A, sequence (Q14432 whole entry): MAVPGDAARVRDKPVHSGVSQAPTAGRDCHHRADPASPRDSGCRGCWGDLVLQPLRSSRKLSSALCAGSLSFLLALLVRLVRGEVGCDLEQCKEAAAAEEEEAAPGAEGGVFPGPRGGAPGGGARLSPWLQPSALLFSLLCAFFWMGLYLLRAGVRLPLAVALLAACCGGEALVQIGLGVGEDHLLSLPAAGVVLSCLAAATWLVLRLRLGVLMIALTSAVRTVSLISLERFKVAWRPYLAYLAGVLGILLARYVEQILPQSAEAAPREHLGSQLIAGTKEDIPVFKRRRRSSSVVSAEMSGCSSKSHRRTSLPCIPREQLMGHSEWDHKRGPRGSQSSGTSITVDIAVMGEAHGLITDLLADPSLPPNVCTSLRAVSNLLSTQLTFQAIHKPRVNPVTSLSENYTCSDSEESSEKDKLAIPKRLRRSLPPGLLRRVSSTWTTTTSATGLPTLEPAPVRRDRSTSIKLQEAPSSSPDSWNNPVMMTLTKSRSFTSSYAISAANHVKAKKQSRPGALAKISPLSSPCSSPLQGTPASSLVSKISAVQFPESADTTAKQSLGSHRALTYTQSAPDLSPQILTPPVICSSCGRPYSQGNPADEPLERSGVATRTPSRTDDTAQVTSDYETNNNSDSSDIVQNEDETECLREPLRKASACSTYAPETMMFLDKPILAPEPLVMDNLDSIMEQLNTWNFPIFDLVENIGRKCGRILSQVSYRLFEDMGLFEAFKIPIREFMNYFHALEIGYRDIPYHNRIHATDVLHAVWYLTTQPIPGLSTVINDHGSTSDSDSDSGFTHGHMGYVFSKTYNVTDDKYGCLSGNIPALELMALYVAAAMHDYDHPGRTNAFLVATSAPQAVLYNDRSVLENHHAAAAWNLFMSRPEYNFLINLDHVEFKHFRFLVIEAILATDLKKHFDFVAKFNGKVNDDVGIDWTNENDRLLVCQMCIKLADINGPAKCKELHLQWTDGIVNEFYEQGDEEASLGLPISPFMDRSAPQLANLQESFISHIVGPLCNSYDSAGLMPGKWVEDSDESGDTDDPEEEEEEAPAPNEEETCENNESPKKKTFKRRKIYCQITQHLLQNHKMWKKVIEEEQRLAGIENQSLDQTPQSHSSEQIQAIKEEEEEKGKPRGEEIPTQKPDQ

Row | Structure (SMILES) | AC50 [1] [µM] | AC50 [2] [µM] | AC50 [3] [µM] | AC50 (Mu-type opioid receptor) [µM] | AC50 [4] [µM] | AC50 (B2 bradykinin receptor) [µM] | AC50 [5] [µM] | AC50 [6] [µM] | AC50 [7] [µM] | AC50 [8] [µM] | AC50 (Vasopressin V1a receptor) [µM] | AC50 [9] [µM] | AC50 (Melanocortin receptor 4) [µM]
1 | Clc1ccccc1C(c1ccccc1)(c1ccccc1)n1ccnc1 [CLOTRIMAZOLE] | 15 |  |  |  |  |  |  |  |  |  |  |  | 
2 | Brc1c(NC2=NCCN2)ccc2nccnc12 [BRIMONIDINE] |  | > 30 | > 30 | > 30 | > 30 | > 30 | > 30 |  |  |  |  |  | 
3 | CC(CC1c2ccccc2CCc2ccccc21)CN(C)C (stereo unspecified) [BUTRIPTYLINE] |  | > 30 |  |  | > 30 |  |  | > 30 | 5 | 15 |  |  | 
4 | COc1ccc2c3c1O[C@H]1[C@@H](O)CC[C@H]4[C@@H](C2)N(C)CC[C@@]341 [DIHYDROCODEINE] |  | > 30 |  |  | > 30 |  |  | > 30 | > 30 | > 30 |  |  | 
5 | C[C@H]1COc2c(C3(N)CC3)c(F)cc3c(=O)c(C(=O)O)cn1c23 [PAZUFLOXACIN] | > 10 |  | > 10 |  | > 30 | > 10 | > 10 | > 10 | > 10 | > 10 | > 10 | > 10 | > 10
6 | NC(=O)OCC(COC(N)=O)c1ccccc1 [FELBAMATE] | > 10 |  | > 10 |  | > 30 | > 10 | > 10 | > 10 | > 10 | > 10 | > 10 | > 10 | > 10
7 | C#C[C@]1(O)CC[C@H]2[C@@H]3[C@H](C)CC4=C(CCC(=O)C4)[C@H]3CC[C@@]21C [TIBOLONE] |  |  | > 30 | > 30 | > 30 | > 30 | > 30 | > 30 |  |  |  |  | 
8 | CC/C(=C(\c1ccccc1)c1ccc(OCCN(C)C)cc1)c1ccccc1 [TAMOXIFEN] | 13.6 |  |  |  |  |  |  | > 10 |  |  |  |  | 
9 | Cc1nnc2n1-c1ccc(Cl)cc1C(c1ccccc1Cl)=NC2 [TRIAZOLAM] | > 10 |  | > 30 |  | > 30 | > 30 | > 30 | > 10 | > 10 | > 30 | > 30 | > 30 | > 30
10 | O=C1C(O)=C([C@H]2CC[C@H](c3ccc(Cl)cc3)CC2)C(=O)c2ccccc21 [ATOVAQUONE] | > 30 |  | > 30 | > 30 | > 30 | > 30 | > 30 | > 30 | > 30 | > 30 | > 30 | > 30 | 
11 | CC(C)(C)NCC(O)COc1cccc2c1CCC(=O)N2 (stereo unspecified) [CARTEOLOL] |  |  | > 10 |  | > 30 | > 10 | > 10 | > 10 | > 10 | > 10 | > 10 | > 10 | > 10
12 | Cc1cc(C(C)(C)C)c(O)c(C)c1CC1=NCCN1 [OXYMETAZOLINE] |  | > 30 |  |  | > 30 |  |  |  |  |  |  |  | 
13 | CC1(C)CCC(CN2CCN(c3ccc(C(=O)NS(=O)(=O)c4ccc(NCC5CCOCC5)c([N+](=O)[O-])c4)c(Oc4cnc5[nH]ccc5c4)c3)CC2)=C(c2ccc(Cl)cc2)C1 [VENETOCLAX] |  |  |  |  | > 30 |  |  |  |  |  |  | > 30 | 
14 | Fc1ccc(C(c2ccccc2)(c2ccccc2F)n2ccnc2)cc1 (stereo unspecified) [FLUTRIMAZOLE] | > 30 |  | > 30 | > 30 | > 30 | > 30 | > 30 | > 30 | > 30 | > 30 | > 30 | > 30 | 
15 | Nc1nc(Cl)nc2c1ncn2[C@H]1C[C@H](O)[C@@H](CO)O1 [CLADRIBINE] |  | > 30 | > 30 | > 30 | 28 | > 30 | > 30 | > 30 |  |  |  |  | 
16 | COc1cccc(C2(O)CCCCC2CN(C)C)c1 (stereo unspecified) [TRAMADOL] | > 10 |  | > 30 |  | > 30 | > 30 | > 30 | > 10 |  |  | > 10 |  | > 30
17 | C[C@@H]1O[C@@H](O[C@@H]2C=C3CC[C@@H]4[C@H](CC[C@]5(C)[C@@H](c6ccc(=O)oc6)CC[C@]45O)[C@@]3(C)CC2)[C@H](O)[C@H](O)[C@H]1O [PROSCILLARIDIN] |  |  | > 30 | > 30 | > 30 | > 30 | > 30 | > 30 |  |  |  |  | 
18 | NC(=O)CN1CC(O)CC1=O (stereo unspecified) [OXIRACETAM] |  | > 30 | > 30 | > 30 | > 30 | > 30 | > 30 | > 30 | > 30 | > 30 | > 30 | > 30 | 
19 | COc1ccc(CCNCC(O)COc2cccc(C)c2)cc1OC (stereo unspecified) [BEVANTOLOL] |  |  | > 10 | > 30 | > 30 | > 10 | > 10 | > 10 | > 10 | > 10 | > 10 | 3 | > 10
20 | Cc1c(OCC(F)(F)F)ccnc1C[S+]([O-])c1nc2ccccc2[nH]1 (stereo unspecified) [LANSOPRAZOLE] | > 10 |  | > 30 | 4.2 | > 10 | > 30 | > 30 | > 10 |  |  | > 10 |  | > 30
